Laboratory results as given in PMC2769143, “Variations in IC50 Values with Purity of Mushroom Tyrosinase” (International Journal of Molecular Sciences, 2009).
Where two headings read alike, the source gives them in different places. Each block holds one compound with its values, some of them ahead of it.

Legend:
[1] = molecular target: mushroom tyrosinase; conditions: cited from earlier work
[2] = molecular target: crude mushroom tyrosinase (MT) extract; assay: DOPA oxidation (dopachrome, 475 nm) assay with crude MT extract, with 0.1% SDS; type: biochemical, White button mushrooms
Procedure: (§1) White button mushrooms were purchased from local stores and blended in 100 mM sodium phosphate (pH 6.0) containing 1 mM EDTA, 1 mM PMSF, 5 mM ascorbic acid and 1 M sucrose. The homogenates were filtered and stored at −15 °C in small aliquots. Commercial mushroom tyrosinase. Mushroom tyrosinase was dissolved in the above buffer without ascorbic acid at 2 mg dry weight/mL and stored at 5 °C in small aliquots.
(§2) Each one mL assay contained a final concentration of 100 mM sodium phosphate (pH 6.5) and 2 mM DOPA. Crude, commercial or partially purified tyrosinase was added to initiate the reaction. […] Rates were determined from the linear portion of the absorbance vs. time curves. Crude enzyme was use at a concentration of 0.1 units (8.4 μg protein) per mL in the assay and assayed in the presence of 0.1% SDS. Commercial tyrosinase was used at a concentration of 0.038 units (3.3 μg protein) per mL in the assay. The purified enzyme was used at a concentration of 0.0067 units (0.58 μg protein) per mL in the assay.
(§3) Various amounts of inhibitors were added into assays to determine a range of inhibitors needed to encompass the IC50 value. Then assays were repeated within this range of inhibitor concentrations. Rates were determined as above. […] For the crude and commercial MT, experiments were repeated at least twice and the average IC50 value reported. Because of the limited amount of purified tyrosinase, not all experiments could be repeated twice. In experiments requiring DMSO to dissolve the inhibitor, control assays contained the assay mixture with DMSO but minus inhibitor. Final DMSO concentrations were 5% or less in the assays.

[3] = molecular target: purified mushroom tyrosinase (MT) (Agaricus bisporus, UniProt C7FF04); assay: DOPA oxidation (dopachrome, 475 nm) assay with partially purified commercial MT; type: biochemical
Sequence of purified mushroom tyrosinase (MT) (C7FF04 1-392): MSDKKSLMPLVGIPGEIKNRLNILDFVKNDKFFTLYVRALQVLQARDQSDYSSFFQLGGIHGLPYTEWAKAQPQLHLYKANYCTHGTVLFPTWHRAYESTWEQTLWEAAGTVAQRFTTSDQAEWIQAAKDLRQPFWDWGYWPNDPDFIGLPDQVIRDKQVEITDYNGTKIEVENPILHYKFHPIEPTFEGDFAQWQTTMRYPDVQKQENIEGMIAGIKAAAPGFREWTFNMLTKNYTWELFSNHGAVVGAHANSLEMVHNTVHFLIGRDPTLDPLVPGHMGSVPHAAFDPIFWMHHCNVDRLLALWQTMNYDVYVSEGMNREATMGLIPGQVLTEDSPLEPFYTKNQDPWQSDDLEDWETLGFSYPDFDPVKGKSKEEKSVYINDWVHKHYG
Sequence of purified mushroom tyrosinase (MT) (G1K3P4 entry or part of it, further chain): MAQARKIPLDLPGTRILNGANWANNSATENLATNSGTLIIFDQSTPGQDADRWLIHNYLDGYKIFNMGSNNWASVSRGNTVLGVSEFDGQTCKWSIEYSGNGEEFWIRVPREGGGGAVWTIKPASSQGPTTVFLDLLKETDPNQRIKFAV
Procedure: as §2, §3

[4] = molecular target: commercial mushroom tyrosinase (MT) (Agaricus bisporus, UniProt C7FF04); assay: DOPA oxidation (dopachrome, 475 nm) assay with commercial MT; type: biochemical; conditions: for IC50: read-out: IC50 Commer. MT
Sequence of commercial mushroom tyrosinase (MT) (C7FF04 1-392): as the sequence (C7FF04 1-392) above
Sequence of commercial mushroom tyrosinase (MT) (G1K3P4 entry or part of it, further chain): as the sequence (G1K3P4 entry or part of it, further chain) above
Procedure: Commercial mushroom tyrosinase was purchased from Worthington Biochemical Corp. (Lakewood, NJ, USA). Substrates and inhibitors were obtained from Sigma-Aldrich (St. Louis, MO, USA). Anisaldehyde was obtained form J.T. Baker Chemical Co. (Phillipsburg, NJ, USA). Dimethyl sulfoxide (DMSO) was reagent grade from Sigma-Aldrich (St. Louis, MO, USA).
as §1, §2, §3

[5] = molecular target: mushroom tyrosinase (crude, commercial and purified MT); assay: DOPA oxidation assay, statements pooled over crude, commercial and purified MT; type: biochemical
Procedure: Each one mL assay contained a final concentration of 100 mM sodium phosphate (pH 6.5) and 2 mM DOPA. Crude, commercial or partially purified tyrosinase was added to initiate the reaction. Oxidation of DOPA into dopachrome was monitored at 475 nm. One unit of activity was defined as 1 μmole dopachrome formed per min per ml enzyme using an extinction coefficient of 3600 M^−1 cm^−1. Rates were determined from the linear portion of the absorbance vs. time curves. Crude enzyme was use at a concentration of 0.1 units (8.4 μg protein) per mL in the assay and assayed in the presence of 0.1% SDS. Commercial tyrosinase was used at a concentration of 0.038 units (3.3 μg protein) per mL in the assay. The purified enzyme was used at a concentration of 0.0067 units (0.58 μg protein) per mL in the assay.
Various amounts of inhibitors were added into assays to determine a range of inhibitors needed to encompass the IC50 value. Then assays were repeated within this range of inhibitor concentrations. Rates were determined as above. […] The concentration of inhibitor needed to inhibit 50% of the tyrosinase activity was extrapolated from % activity vs. [inhibitor] curves. For some inhibitors, we also used Statistical Data Analysis Software (SDAS, version 2008A) using an exponential equation to obtain a best fit curve and then to calculate IC50 values. For the crude and commercial MT, experiments were repeated at least twice and the average IC50 value reported. Because of the limited amount of purified tyrosinase, not all experiments could be repeated twice. In experiments requiring DMSO to dissolve the inhibitor, control assays contained the assay mixture with DMSO but minus inhibitor. Final DMSO concentrations were 5% or less in the assays.

Compound: COc1ccc(C(=O)O)cc1 [anisic acid]
IC50 ([1]; read-out: Reported IC50 value): 680 µM

Compound: [Cl-].[Na+] [NaCl]
IC50 ([2]; 2 mM DOPA, pH 6.5, 0.1% SDS): 65000 µM
IC50 ([1]; DOPA as substrate, read-out: Reported IC50 Values): 25000 µM

Compound: Oc1ccc(O)cc1 [hydroquinone]
Effect on purified MT activity [3]: activates ^f
Concentration up to which crude MT is activated ([2]; 2 mM DOPA): ≤ 100 µM
Effect on crude MT activity ([2]; 2 mM DOPA): activates ^d
IC50 ([1]; read-out: Reported IC50 Values): 26 µM
Effect on commercial MT activity [4]: activates ^e

Compound: COc1ccc(C=O)cc1 [anisaldehyde]
IC50 ([5]; 2 mM DOPA, read-out: IC50, range between crude, commercial and purified MT): 1000 to 1800 µM
IC50 ([2]; 2 mM DOPA, pH 6.5, 0.1% SDS): 1000 µM
IC50 ([1]; read-out: Reported IC50 Values): 160 µM

IC50 ([2]; 2 mM DOPA, pH 6.5, 0.1% SDS): 0.39 µM
Compound: O=c1cccccc1O [tropolone]
IC50 ([1]; read-out: Reported IC50 Values): 0.4 µM

Compound: N.N.S.S.[S]=[Mo]=[S] [ATTM, ammonium tetrathiomolybdate]
IC50 ([2]; 2 mM DOPA, pH 6.5, 0.1% SDS): 3.4 µM
IC50 ([1]; read-out: Reported IC50 Values): 2 µM
IC50 ([4]; 2 mM DOPA, pH 6.5): 3.3 µM

IC50 ([2]; 2 mM DOPA, pH 6.5, 0.1% SDS): 46 µM
Compound: Cn1cc[nH]c1=S [methimazole]
IC50 ([1]; read-out: Reported IC50 Values): 200 µM

Compound: 4,4’-dihydroxy-biphenyl [biphenol]
Concentration beyond which purified MT activity increases ([3]; 2 mM DOPA): > 100 µM
IC50 ([3]; 2 mM DOPA, pH 6.5): 67 µM
IC50 ([2]; 2 mM DOPA, pH 6.5, 0.1% SDS): 50 µM
IC50 ([1]; tyrosine as substrate, read-out: Reported IC50 Values): 1.9 µM
IC50 ([4]; 2 mM DOPA, pH 6.5): 10 µM

IC50 Purified MT ([3]; 2 mM DOPA, pH 6.5): >20 mg/mL ^i
IC50 Crude MT ([2]; 2 mM DOPA, pH 6.5, 0.1% SDS): >10 mg/mL ^g
IC50 Commer. MT ([4]; 2 mM DOPA, pH 6.5): >20 mg/mL ^h
Compound: lysozyme
Reported inhibition of MT ([1]; MT and lysozyme incubated for one hour before assaying): 30%
Reported IC50 value [1]: 4.6 µg/mL
Reported inhibition of MT ([1]; mixing MT with lysozyme just before assaying): 8%
IC50 ([1]; read-out: Reported IC50 Values): 0.32 µM

Compound: O=S(=O)([O-])[O-].[Zn+2] [ZnSO4]
Inhibition of purified MT ([3]; at 1 mM): none@1 mM
Inhibition of MT ([5]; concentrations up to 1 mM): no inhibition
Inhibition of crude MT ([2]; at 1 mM): none@1 mM
IC50 ([1]; assay coupling DOPA oxidation to thymol blue coloration, read-out: Reported IC50 Values): 50 µM
Inhibition of commercial MT ([4]; at 1 mM): none@1 mM

IC50 ([2]; 2 mM DOPA, pH 6.5, 0.1% SDS): 625 µM
Compound: O=C(CCc1ccc(O)cc1)c1c(O)cc(O)cc1O[C@@H]1O[C@H](CO)[C@@H](O)[C@H](O)[C@H]1O [phloridzin]
IC50 ([1]; read-out: Reported IC50 Values): 110 µM

IC50 ([2]; 2 mM DOPA, pH 6.5, 0.1% SDS): 36 µM
Compound: O=c1cc(CO)occ1O [kojic acid]

IC50 ([2]; 2 mM DOPA, pH 6.5, 0.1% SDS): 5.8 µM
Compound: CCCCCCc1ccc(O)cc1O [4-HR, 4-hexylresorcinol]
IC50 ([1]; read-out: Reported IC50 Values): 0.85 µM

IC50 ([2]; 2 mM DOPA, pH 6.5, 0.1% SDS): 70 µM
Compound: O=c1ccc2cc(O)c(O)cc2o1 [esculetin]

Inhibition of purified MT ([3]; to 2 mM): NI to 2 mM
Inhibition of tyrosinase ([5]; up to 2 mM): relatively little inhibition
Inhibition of crude MT ([2]; to 2 mM): NI to 2 mM
Inhibition of commercial MT ([4]; to 2 mM): NI to 2 mM
Compound: CS(C)(=O)=O [dimethyl sulfone]

Compound: CSC [dimethyl sulfide]
Inhibition of purified MT ([3]; to 500 μM): NI to 500 μM
Inhibition of MT ([5]; up to 500 μM, any of the MT samples): Little to no inhibition
Inhibition of crude MT ([2]; to 500 μM): NI to 500 μM
Inhibition of commercial MT ([4]; to 500 μM): NI to 500 μM
